Data taken from patent US11072599B2, “Pyrazole compounds and uses thereof” (Yissum Research Development Company of the Hebrew …, priority 2017, dated 2021).

System: RKO colorectal cells
Assay: Dose-response compound screen in RKO cells (Western blot, indicators of CKIα inhibition)
Format: cell-based
Conditions: 16 hours at 37° C., 0.167-1.5 μM or 0.11-1 μM, ImageJ, 1 = mock (DMSO)-treated cells
Experimental: RKO cells were incubated for 16 hours at 37° C. with indicated concentrations of the compounds, or with the vehicle (DMSO) alone (−) and analyzed by Western Blot. Shown are Western Blot signals of β-catenin and p53 stabilization and phosphorylation of H2AX (γH2AX), a marker of DNA damage.
RKO colorectal cells were incubated with serial dilutions of each of the compounds (at a concentration range of 0.167-1.5 μM or 0.11-1 μM in DMSO) for 16 hours at 37° C. Cells were washed with PBS and cell pellets were incubated with ice cold protein lysis buffer containing protease inhibitor cocktail ( 1/200; Calbiochem) and phosphatase inhibitors (20 mM p-nitrophenyl phosphate (PNPP), 20 mM β-glycerophosphate and 300 nM okadaic acid). Western blot (WB) analysis was performed by means of standard techniques. Blots were incubated with antibodies detecting β-catenin ( 1/2,500; BD Transduction), p53 (DO-1&1801 hybridoma mix; dilution of 1:20 of supernatants from each), CKIα (C-19; 1/1,000; Santa Cruz Biotechnology) and phospho-histone H2AX (S139; 1/1,000; Millipore). Secondary antibodies were HRP-linked goat anti-mouse, goat anti-rabbit and rabbit anti-goat antibodies (all 1/10,000; Jackson). Blots were developed using ECL (GE Healthcare). Signal intensities corresponding to β-catenin and p53 stabilization and phosphorylation of H2AX (γH2AX—a marker of DNA damage)-indicators of CKIα inhibition (Elyada et al., Nature […]), were analyzed by the ImageJ software. Relative signal intensities are depicted in Table 1 (see also in FIG. 1), where values of 1 correspond to signals of mock (DMSO)-treated cells.

Compound | H2AX phosphorylation (γH2AX, relative signal intensity) | p53 stabilization (relative signal intensity) | β-Catenin stabilization (relative signal intensity)
Cn1ncc(-c2cc(N[C@H]3CC[C@H](N)CC3)nc(N)n2)c1CC1CC1 [A107, N4-((1r,4r)-4-aminocyclohexyl)-6-(5-(cyclopropylmethyl)-1-methyl-1H-pyrazol-4-yl)pyrimidine-2,4-diamine] | 1 | 2 | 4
Cc1ccnn1[C@H]1CC[C@H](Nc2ncc(Cl)c(-c3cnn(C)c3CC3CC3)n2)CC1 [A102] | 1 | 1 | 4
Cn1ncc(-c2cc(N[C@H]3CC[C@H](N)CC3)ncc2Cl)c1CC1CC1 [A104, (1r,4r)-N1-(5-chloro-4-(5-(cyclopropylmethyl)-1-methyl-1H-pyrazol-4-yl)pyridin-2-yl)cyclohexane-1,4-diamine] | 20 | 20 | 9
Cn1ncc(-c2cc(O)nc(N[C@H]3CC[C@H](N)CC3)n2)c1CC1CC1 [A108, 2-(((1r,4r)-4-aminocyclohexyl)amino)-6-(5-(cyclopropylmethyl)-1-methyl-1H-pyrazol-4-yl)pyrimidin-4-ol] | 1 | 1 | 9
Cn1ncc(-c2cc(N[C@H]3CC[C@H](N)CC3)ncn2)c1CC1CC1 [A106, (1r,4r)-N1-(6-(5-(cyclopropylmethyl)-1-methyl-1H-pyrazol-4-yl)pyrimidin-4-yl)cyclohexane-1,4-diamine] | 1 | 1 | 9
Cn1ncc(-c2cccc(N[C@H]3CC[C@H](N)CC3)n2)c1CC1CC1 [A105, (1r,4r)-N1-(6-(5-(cyclopropylmethyl)-1-methyl-1H-pyrazol-4-yl)pyridin-2-yl)cyclohexane-1,4-diamine] | 1 | 2 | 5
